Assay results taken from patent US20130303509A1, “NAMPT INHIBITORS” (AbbVie Inc., priority 2012, published 2013).

tested on: PC3 cells; assay: NAMPT Cell Proliferation Assay; assay type: cell-based; details: Homo sapiens, PC-3, 120 h, 5 days incubation, cell viability by Cell Titer Glo
In short: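 Five-day CellTiter-Glo viability readout in PC3 cells grown in RPMI/10% heat-inactivated FBS. Compounds added after overnight attachment as a 10-fold dilution series, […]. Percent inhibition fitted to sigmoidal dose-response to derive IC50.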

Point of comparison: CC(C)CCC(=O)N1CCC(c2ccc(NC(=O)[C@H]3CCN(c4cccnn4)C3)cc2)CC1 [Example 671, (3S)-N-{4-[1-(4-methylpentanoyl)piperidin-4-yl]phenyl}-1-(pyridazin-3-yl)pyrrolidine-3-carboxamide], IC50 8.53 nM. Against it:
- O=C(Nc1ccc(C2CCN(C(=O)Cc3ccc4ccccc4c3)CC2)cc1)[C@H]1CCN(c2cccnn2)C1 [Example 646, (3S)-N-{4-[1-(naphthalen-2-ylacetyl)piperidin-4-yl]phenyl}-1-(pyridazin-3-yl)pyrrolidine-3-carboxamide] — 6.9-fold higher, 58.7 nM
- Cc1c(F)cccc1C(=O)N1CCC(c2ccc(NC(=O)[C@H]3CCN(c4cccnn4)C3)cc2)CC1 [Example 685, (3S)-N-{4-[1-(3-fluoro-2-methylbenzoyl)piperidin-4-yl]phenyl}-1-(pyridazin-3-yl)pyrrolidine-3-carboxamide] — within 1.5-fold, 8.28 nM
- O=C(Nc1ccc(C2CCN(C(=O)Cc3cc(F)cc(F)c3)CC2)cc1)C1CN(c2cccnn2)C1 [Example 384, N-(4-{1-[(3,5-difluorophenyl)acetyl]piperidin-4-yl}phenyl)-1-(pyridazin-3-yl)azetidine-3-carboxamide] — within 1.5-fold, 8.27 nM
- Cc1ncccc1N1CC(C(=O)Nc2ccc(C3CCN(C(=O)CCC(C)C)CC3)cc2)C1 [Example 176, N-{4-[1-(4-methylpentanoyl)piperidin-4-yl]phenyl}-1-(2-methylpyridin-3-yl)azetidine-3-carboxamide] — 26-fold higher, 218 nM
- CCCc1nc(-c2ccc(NC(=O)C3CN(c4cccnn4)C3)cc2)no1 [Example 784, N-[4-(5-propyl-1,2,4-oxadiazol-3-yl)phenyl]-1-(pyridazin-3-yl)azetidine-3-carboxamide] — 1.9-fold higher, 16 nM
- CCC(C)(C)C(=O)N1CCC(c2ccc(NC(=O)C3CN(c4cccnc4)C3)cc2)CC1 [Example 133, N-{4-[1-(2,2-dimethylbutanoyl)piperidin-4-yl]phenyl}-1-(pyridin-3-yl)azetidine-3-carboxamide] — 14-fold lower, 0.62 nM
- O=C(Nc1ccc(C2CCN(C(=O)Cc3ccc(C(F)(F)F)cc3)CC2)cc1)C1CN(c2ccnnc2)C1 [Example 563, 1-(pyridazin-4-yl)-N-[4-(1-{[4-(trifluoromethyl)phenyl]acetyl}piperidin-4-yl)phenyl]azetidine-3-carboxamide] — 2.8-fold higher, 24.2 nM
- Cc1ncccc1N1CC(C(=O)Nc2ccc(C3CCN(C(=O)C4(C)CCCCC4)CC3)cc2)C1 [Example 177, N-(4-{1-[(1-methylcyclohexyl)carbonyl]piperidin-4-yl}phenyl)-1-(2-methylpyridin-3-yl)azetidine-3-carboxamide] — 13-fold higher, 107 nM
- CC(=O)N1CCC(c2ccc(NC(=O)C3CN(c4cccnc4)C3)cc2)CC1 [Example 118, N-[4-(1-acetylpiperidin-4-yl)phenyl]-1-(pyridin-3-yl)azetidine-3-carboxamide] — 39-fold lower, 0.22 nM
- CC(C)(O)Cn1cc(-c2ccc(NC(=O)C3CN(c4cccnn4)C3)cc2)cn1 [Example 753, N-{4-[1-(2-hydroxy-2-methylpropyl)-1H-pyrazol-4-yl]phenyl}-1-(pyridazin-3-yl)azetidine-3-carboxamide] — within 1.5-fold, 8.92 nM
- O=C(Nc1ccc(C2CCN(C(=O)Cc3cccc4ccccc34)CC2)cc1)C1CN(c2cccnn2)C1 [Example 410, N-{4-[1-(naphthalen-1-ylacetyl)piperidin-4-yl]phenyl}-1-(pyridazin-3-yl)azetidine-3-carboxamide] — within 1.5-fold, 8.68 nM
- Cc1ncccc1N1CC(C(=O)Nc2ccc(OC3CCN(C(=O)CC4CCOCC4)CC3)cc2)C1 [Example 4, 1-(2-methylpyridin-3-yl)-N-(4-{[1-(tetrahydro-2H-pyran-4-ylacetyl)piperidin-4-yl]oxy}phenyl)azetidine-3-carboxamide] — 13-fold higher, 112 nM
- O=C(Nc1ccc(C2CCN(CC3CCCC3)CC2)cc1)C1CN(c2cccnc2)C1 [Example 88, N-{4-[1-(cyclopentylmethyl)piperidin-4-yl]phenyl}-1-(pyridin-3-yl)azetidine-3-carboxamide] — 7.8-fold higher, 66.3 nM
- O=C(Nc1ccc(S(=O)(=O)C2CCN(C(=O)Cc3ccc(F)cc3)CC2)cc1)C1CN(c2cccnn2)C1 [Example 579, N-[4-({1-[(4-fluorophenyl)acetyl]piperidin-4-yl}sulfonyl)phenyl]-1-(pyridazin-3-yl)azetidine-3-carboxamide] — 31-fold higher, 267 nM
- O=C(Nc1ccc(C2CCN(C(=O)c3ccccc3)CC2)cc1)[C@H]1CCN(c2cccnn2)C1 [Example 311, (3S)—N-[4-(1-benzoylpiperidin-4-yl)phenyl]-1-(pyridazin-3-yl)pyrrolidine-3-carboxamide] — 2.9-fold lower, 2.9 nM
- O=C(Nc1ccc(C2CCN(C(=O)C(c3ccccc3)c3ccccc3)CC2)cc1)C1CN(c2cccnn2)C1 [Example 386, N-{4-[1-(diphenylacetyl)piperidin-4-yl]phenyl}-1-(pyridazin-3-yl)azetidine-3-carboxamide] — 2.7-fold lower, 3.18 nM
- CC(=O)N[C@@H](CC(C)C)C(=O)N1CCC(c2ccc(NC(=O)C3CN(c4cccnn4)C3)cc2)CC1 [Example 385, N-{4-[1-(N-acetyl-L-leucyl)piperidin-4-yl]phenyl}-1-(pyridazin-3-yl)azetidine-3-carboxamide] — 2.7-fold higher, 23.2 nM
- CC(C)(C)C(=O)N1CCC(F)(c2ccc(NC(=O)C3CN(c4cccnn4)C3)cc2)CC1 [Example 864, N-{4-[1-(2,2-dimethylpropanoyl)-4-fluoropiperidin-4-yl]phenyl}-1-(pyridazin-3-yl)azetidine-3-carboxamide] — 1.6-fold lower, 5.29 nM
- O=C(Nc1ccc(OC2CCN(C(=O)c3cccc(F)c3)CC2)cc1)C1CN(c2ccnnc2)C1 [Example 286, N-(4-{[1-(3-fluorobenzoyl)piperidin-4-yl]oxy}phenyl)-1-(pyridazin-4-yl)azetidine-3-carboxamide] — 8.7-fold higher, 74 nM
- CC(C)C(C)C(=O)N1CCC(c2ccc(NC(=O)C3CN(c4cccnc4)C3)cc2)CC1 (centres unmarked) [Example 139, N-{4-[1-(2,3-dimethylbutanoyl)piperidin-4-yl]phenyl}-1-(pyridin-3-yl)azetidine-3-carboxamide] — 47-fold lower, 0.18 nM
- Cc1ccc(F)cc1C(=O)N1CCC(c2ccc(NC(=O)[C@H]3CCN(c4cccnn4)C3)cc2)CC1 [Example 697, (3S)-N-{4-[1-(5-fluoro-2-methylbenzoyl)piperidin-4-yl]phenyl}-1-(pyridazin-3-yl)pyrrolidine-3-carboxamide] — within 1.5-fold, 5.96 nM
- Cc1ncccc1N1CC[C@H](C(=O)Nc2ccc(C3CCN(C(=O)c4ccccc4)CC3)cc2)C1 [Example 743, (3S)—N-[4-(1-benzoylpiperidin-4-yl)phenyl]-1-(2-methylpyridin-3-yl)pyrrolidine-3-carboxamide] — 780-fold higher, 6620 nM
- CC1(C(=O)N2CCC(c3ccc(NC(=O)[C@H]4CCN(c5cccnn5)C4)cc3)CC2)CC1 [Example 712, (3S)-N-(4-{1-[(1-methylcyclopropyl)carbonyl]piperidin-4-yl}phenyl)-1-(pyridazin-3-yl)pyrrolidine-3-carboxamide] — within 1.5-fold, 6.79 nM
- CC(C)(C(=O)N1CCC(Oc2ccc(NC(=O)C3CN(c4cccnn4)C3)cc2)CC1)c1ccccc1 [Example 217, N-(4-{[1-(2-methyl-2-phenylpropanoyl)piperidin-4-yl]oxy}phenyl)-1-(pyridazin-3-yl)azetidine-3-carboxamide] — 3.3-fold lower, 2.55 nM
- COCCOCC(=O)N1CCC(c2ccc(NC(=O)C3CN(c4cccnn4)C3)cc2)CC1 [Example 335, N-(4-{1-[(2-methoxyethoxy)acetyl]piperidin-4-yl}phenyl)-1-(pyridazin-3-yl)azetidine-3-carboxamide] — within 1.5-fold, 6.07 nM
